Test results from patent US20100062063A1, “LIGHT-STABLE SOLID PHARMACEUTICAL COMPOSITION OF RAMOSETRON” (ASTELLAS PHARMA INC., priority 2006, published 2010).
Entries after “also recorded” stand apart in the source; their conditions may differ.

Legend:
[1] = Area under the light absorbance spectrum curve of a 0.001 w/v % aqueous solution (UV meter, trapezoidal formula); type: physicochemical; conditions: 0.001 w/v % aqueous solution of the added compound
Method: FIG. 1 is a graph showing the relationship between the absorbance wavelength and the absorbance of various compounds. The measurement method is as follows. A 0.001 w/v % aqueous solution of a drug and various stabilizers was prepared, and the absorbances at each absorbance wavelength in a range of 200 nm to 600 nm were measured. […] Condition: scan speed: medium speed, sampling pitch: 1.0, length of light path: 10 mm, width of a slit: 2.0 nm.
FIG. 2 is a graph showing a method for calculating the area under the spectrum curve of various compounds. The area under the spectrum curve was calculated by a trapezoidal formula. That is, for the spectrum of each of the compounds, the trapezoidal area was calculated at every sampling pitch (1.0 nm), and a desired area was measured from the total value of the trapezoidal areas in the wavelength range.

[2] = Stability under irradiation with a white fluorescent lamp of 1000 Lux, assay value by liquid chromatography; conditions: compound added to ramosetron hydrochloride preparation
Method: The quantitative determination was carried out by liquid chromatography.

[3] = Stability under sealing of an HDPE plastic bottle at 40° C. and 75% RH, assay value by liquid chromatography; type: physicochemical; conditions: compound added to ramosetron or its salt

Compound	area under the spectrum curve at the wavelength range of 220 nm to 240 nm [1]	area under the spectrum curve at the wavelength range of 280 nm to 300 nm [1]	stabilizing effect of the added compound on ramosetron hydrochloride against light (in words) [2]	stabilizing effect of the added compound on ramosetron under a high-temperature and high-humidity condition (in words) [3]
OC[C@@H](O)[C@@H](O)[C@H](O)[C@H](O)CO [mannitol, reference compound]	0.1	0.1	did not exhibit a remarkable stabilizing effect against light	
methyl hesperidin	5.4	3.7	a remarkable stabilizing effect of ramosetron hydrochloride against the irradiation with light is found; also recorded: exhibited a remarkable stabilizing effect against light	a remarkable stabilizing effect under a high-temperature and high-humidity condition
αG hesperidin	6.0	5.0	a remarkable stabilizing effect of ramosetron hydrochloride against the irradiation with light is found; also recorded: exhibited a remarkable stabilizing effect against light	a remarkable stabilizing effect under a high-temperature and high-humidity condition

Second part, led by results:

area under the spectrum curve at the wavelength range of 220 nm to 240 nm [1]	area under the spectrum curve at the wavelength range of 280 nm to 300 nm [1]	Compound	stabilizing effect of the added compound on ramosetron hydrochloride against light (in words) [2]	stabilizing effect of the added compound on ramosetron under a high-temperature and high-humidity condition (in words) [3]
4.2	1.8	O=C([O-])c1ccccc1-c1c2cc(I)c(=O)c(I)c-2oc2c(I)c([O-])c(I)cc12.[Na+].[Na+] [Food Red No. 3, reference compound]		
10.0	3.1	O=S(=O)([O-])c1cc(S(=O)(=O)[O-])c2c(N=Nc3ccc(S(=O)(=O)[O-])c4ccccc34)c(O)ccc2c1.[Na+].[Na+].[Na+] [Food Red No. 102]		
8.4	19.9	Cc1cc(S(=O)(=O)[O-])c2c(C)ccc(C(C)C)cc1-2.[Na+] [sodium azulene sulfonate]	a remarkable stabilizing effect of ramosetron hydrochloride against the irradiation with light is found; also recorded: exhibited a remarkable stabilizing effect against light	
